{"source": "paper PMC6345978", "about": "“The bacterial MrpORP is a novel Mrp/NBP35 protein involved in iron-sulfur biogenesis” (Scientific Reports, 2019)", "key": {"MrpORP (Dde3202)": {"molecular_target": "T1, MrpORP (Dde3202) (Oleidesulfovibrio alaskensis, UniProt Q30WF0)", "T1 construct": "gene Dde_3202; full length, His-tagged (pJF119-3202His), produced in E. coli TG1, isolated aerobically and reconstituted; 43 kDa; [4Fe-4S] proposed between two monomers", "T1 sequence (Q30WF0 1-415)": "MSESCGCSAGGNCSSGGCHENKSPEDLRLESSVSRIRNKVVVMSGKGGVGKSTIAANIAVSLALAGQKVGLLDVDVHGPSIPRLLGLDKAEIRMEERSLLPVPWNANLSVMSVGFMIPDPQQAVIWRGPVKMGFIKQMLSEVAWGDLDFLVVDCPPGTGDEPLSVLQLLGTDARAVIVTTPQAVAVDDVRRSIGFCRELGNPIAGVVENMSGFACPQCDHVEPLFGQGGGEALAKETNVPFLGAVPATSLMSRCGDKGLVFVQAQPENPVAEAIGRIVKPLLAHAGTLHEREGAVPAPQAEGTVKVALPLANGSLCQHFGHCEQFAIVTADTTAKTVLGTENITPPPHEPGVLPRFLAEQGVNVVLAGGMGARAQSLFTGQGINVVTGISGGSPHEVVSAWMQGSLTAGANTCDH", "test": "UV-visible spectroscopy after in vitro Fe-S reconstitution", "assay_type": "binding", "details": "anaerobic, DTT, Fe2+ with cysteine/IscS; a second cluster in the Di-Nase domain also contributes"}, "Orp3-Orp4-Orp8 complex": {"molecular_target": "T2, Orp3-Orp4-Orp8 complex (Nitratidesulfovibrio vulgaris, UniProt Q72A93+Q72A94)", "T2 construct": "gene DVU_2103; His-tagged Orp3 (pBMC6C3::2103His) co-purified with Orp4 and Orp8 from DvH, metal centres removed; with Orp8, dinitrogenase iron-molybdenum cofactor biosynthesis domain protein", "T2 sequence (Q72A94 1-287)": "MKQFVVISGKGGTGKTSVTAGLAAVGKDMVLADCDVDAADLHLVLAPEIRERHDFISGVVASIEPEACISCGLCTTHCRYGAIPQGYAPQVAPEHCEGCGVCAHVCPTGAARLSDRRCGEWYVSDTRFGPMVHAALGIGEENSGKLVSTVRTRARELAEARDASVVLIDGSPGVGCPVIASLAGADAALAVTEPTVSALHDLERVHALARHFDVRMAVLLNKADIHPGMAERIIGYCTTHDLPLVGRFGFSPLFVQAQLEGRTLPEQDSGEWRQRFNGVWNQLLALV", "T2 sequence (Q72A93 1-301)": "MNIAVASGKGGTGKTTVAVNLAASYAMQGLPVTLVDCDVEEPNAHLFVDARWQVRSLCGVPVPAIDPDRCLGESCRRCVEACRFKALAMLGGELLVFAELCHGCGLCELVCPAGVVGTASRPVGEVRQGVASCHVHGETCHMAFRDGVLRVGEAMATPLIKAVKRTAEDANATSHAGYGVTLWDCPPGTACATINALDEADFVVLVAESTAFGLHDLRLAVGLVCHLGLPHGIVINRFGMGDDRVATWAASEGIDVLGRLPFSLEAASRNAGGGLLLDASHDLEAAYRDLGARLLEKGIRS", "T2 sequence (Q72A89 1-119 partner)": "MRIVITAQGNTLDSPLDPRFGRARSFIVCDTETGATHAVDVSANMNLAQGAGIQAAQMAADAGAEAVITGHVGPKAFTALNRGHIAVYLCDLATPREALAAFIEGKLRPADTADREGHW", "test": "Fe-S cluster transfer from holo-MrpORP, Ni-NTA separation, UV-visible spectroscopy", "assay_type": "binding", "details": "anaerobic, DTT; cluster type from sequence motifs of Orp3 and Orp4, distribution between chains not resolved"}}, "data": [{"substance": "[4Fe-4S] cluster", "values": [{"measurement": "A400/A280", "setting": "MrpORP (Dde3202)", "value": 0.3}, {"measurement": "A400/A280", "setting": "Orp3-Orp4-Orp8 complex", "value": 0.42}]}]}
